The text below walks through data of patent US4273940A, “Bis-(2-benzylaminoethyl)-disulfides” (Abbott Laboratories, priority 1980, dated 1981).

The structures appear in SMILES notation. Structures can show the parent of a compound that is named as a salt. Where two headings read alike, the source gives them in different places.

Assay [1] concerns human neutrophils. The assay can be described thus: inhibition of neutrophil locomotion (intrinsic and chemotactic), in vitro agarose test by the method of Nelson et al. In kind it is cell-based. Particulars: 2 hours at 37° C., duplicate, four donors; for inhibition at 100 µM: 10^-4 molar; for inhibition at 10 µM: 10^-5 molar. The method, then: The compounds of this invention show marked anti-inflammatory properties as intraperitoneal or oral doses of 25-200 mg./kg. and at intravenous doses of 10 mg./kg. and above. […] The current compounds also are inhibitors of chemotaxis of human neutrophils at molar concentrations of 0.00001-0.0005, causing 50-100% inhibition of intrinsic and chemotactic locomotion of the cells, as established by the method of Nelson et al. in J. Immunol. 115, 1650 (1975).
By carrying out the in vitro test of Nelson et al. referred to above, the neutrophil locomotor response modification caused by the above compounds was established. For this purpose, the compounds were dissolved in both agarose media and the media suspending the cells. The effects of the compounds were determined by comparing te chemotactic and intrinsic locomotion of the cells, both with and without the test compounds after 2 hours of incubation at 37° C. All compounds were evaluated in duplicate against the cells which were from four individual donors.

Assay [2] relates to carrageenin induced hind paw edema. The assay can be described thus: modification of the carrageenin induced hind paw edema assay (Winter et al.); anti-inflammatory activity. It is filed as in vivo. Particulars: for reduction of carrageenin induced swelling (volume): after 3 hours.
Assay [3] concerns Type III reactions (reverse passive Arthus lesion). The assay can be described thus: reverse passive Arthus assay (Carter and Krause); Type III reaction. In kind it is in vivo. Particulars: 50 mg./kg. intraperitoneal, group of four animals. The method, then:
Upon intraperitoneal administration to a group of four animals at a dose of 50 mg./kg., the lesion area is inhibited an average of 49% by the compound of Example 1 and 47% by the compound of Example 5.

Setting [4] is: read-out: % Inhibition of Locomotion, Chemotactic.
[5] abbreviates: read-out: % Inhibition of Locomotion, Intrinsic.

For orientation: inhibition means the percentage by which the read-out fell short of the control. Take `COc1ccccc1CNCCSSCCNCc1ccccc1OC.Cl.Cl` [Example 1, bis(2-methoxybenzylaminoethyl)disulfide dihydrochloride]: the inhibition at 100 µM in assay [1] (setting [4]) and in assay [1] (setting [5]) was 100% in each case. For the same compound, the inhibition at 10 µM amounted to 93% in assay [1] (setting [4]) and 94% in assay [1] (setting [5]). The “reduction of carrageenin induced swelling (volume)” value in assay [2] (25 mg./kg. intraperitoneal) is on record as 14.6%; in assay [2] (50 mg./kg. intraperitoneal), 29.9%. Moreover, in assay [3], the “inhibition of lesion area (average)” value is 49%.
Turning to `CC(=O)Oc1ccccc1C(=O)O` [acetylsalicylic acid, reference compound], the “reduction of carrageenin induced swelling (volume), acetylsalicylic acid” value in assay [2] (50 mg/kg., corresponding measurement (3 hours)) was 15.4%.
Take `Cc1cc(C(C)(C)C)cc(CNCCSSCCNCc2cc(C(C)(C)C)cc(C)c2O)c1O` [Example 4, bis(2-hydroxy-3-methyl-5-t-butylbenzylaminoethyl)disulfide dihydrochloride]: the inhibition at 100 µM in assay [1] (setting [4]) came to 100%; in assay [1] (setting [5]) it was 95%. Moreover, the inhibition at 10 µM turned out to be 48% in assay [1] (setting [4]) and 50% in assay [1] (setting [5]).
Take `Oc1ccccc1CNCCSSCCNCc1ccccc1O` [Example 2, bis(2-hydroxybenzylaminoethyl)disulfide]: the inhibition at 100 µM in assay [1] (setting [4]) and in assay [1] (setting [5]) was 100% in each case.
Consider `CC(C)(C)c1cc(Cl)c(O)c(CNCCSSCCNCc2cc(C(C)(C)C)cc(Cl)c2O)c1` [Example 5, bis(2-hydroxy-3-chloro-5-t-butylbenzylaminoethyl)disulfide], for which, in assay [1] (setting [4]), the inhibition at 100 µM came to 100% and the inhibition at 10 µM amounted to 46%. In addition, in assay [1] (setting [5]), the inhibition at 100 µM came out at 85% and the inhibition at 10 µM came to 24%. Besides, the “inhibition of lesion area (average)” value in assay [3] is given as 47%.
Take `Clc1cccc(Cl)c1CNCCSSCCNCc1c(Cl)cccc1Cl` [Example 6, bis(2,6-dichlorobenzylaminoethyl)disulfide hydrochloride]: the inhibition at 100 µM in assay [1] (setting [4]) was determined as 85%; in assay [1] (setting [5]), 74%.
